Test results published in patent publication US6664241B2, “Water-soluble amide derivatives of polyene macrolides and preparation and uses thereof” (Micrologix Biotech Inc., priority 2000, dated 2003).
≈ marks a conversion by molar mass, not a printed value.

Assays:
C. albicans [1] = assay: Minimum Inhibitory Concentrations (MICs) against C. albicans, NCCLS M27-A broth dilution; type: cell-based; settings: Candida albicans, read-out: MIC
Protocol: For each compound synthesized, Minimum Inhibitory Concentrations (MICs) against C. albicans were determined as described in Reference Method for Broth Dilution Antifungal Susceptibility Testing of Yeasts, Approved Standard, NCCLS document M27-A (ISBN 1-56238-328-0), NCCLS, 940 West Valley Road, Suite 1400, Wayne, Pa. 19087, 1997.

[2] = Maximum non-lethal dose (NLD), single intravenous dose in mice; type: in vivo, Swiss-Webster male mice; settings: test compounds as aspartate salts in 5% mannitol, AmB as FUNGIZONE
Protocol: (§1) A variety of the compounds synthesized as described in Section 5, supra, were tested in various in vivo assays, as described below. The results of the various assays are provided in TABLE 3, presented at the end of this section. In all of the in vivo assays described, the test compounds, in the form of the aspartate salts, were formulated in an aqueous vehicle (5% mannitol in sterile water; OSMITROL, Baxter Healthcare, Deerfield, Ill.), followed by appropriate dilutions. The formulations were prepared fresh before dosing.
(§2) AmB and AME were also tested for comparison. For AmB, the commercially available FUNGIZONE (Bristol-Meyers Squibb Co.) was used. Reported values are based upon the weight of the AmB active ingredient, not on the basis of the weight of the FUNGIZONE powder. AME was formulated in OSMITROL as described for the test compounds.
Maximum non-lethal dose (NLD) data were obtained for selected compounds. A single intravenous dose was administered to each of four mice (Swiss-Webster male mice; Simonsen Laboratories, Gilroy, Calif.) in several groups. The doses selected were based upon the NLDs of compounds of similar structures. After review of findings, higher or lower doses were administered and a NLD was determined. The results are tabulated in TABLE 3, below (NLD Acute Mice). The values for AmB and AME are provided for comparison

C. albicans [3] = assay: 5 day kidney bioburden evaluation in immunocompetent mice challenged with C. albicans; type: in vivo, Swiss-Webster mice; settings: Candida albicans, ip, 120 h; intraperitoneally once daily for 5 days, immunocompetent mice, C. albicans; 50% of animals with 2 log10 reduction in kidney CFU; read-out: ED50 mice 5 day
Protocol: as §1, §2
Various polyene macrolide amide derivatives of the invention were evaluated for their protective effect when administered intraperitoneally once daily for 5 days to immunocompetent mice challenged with live C. albicans.
C. albicans was grown on Sabouraud dextrose agar (SDA) plates for 48 hr. Colonies were harvested and washed twice by centrifugation in phosphate-buffered saline (PBS). The washed pellets were resuspended in PBS and diluted to achieve the desired number of fungi per milliliter. A portion of the inoculum was plated on SDA plates to determine the colony-forming units (CFU) per milliliter.
(§3) Swiss-Webster mice (Simonsen Laboratories, Gilroy, Calif.) were administered by intravenous injection a single inoculum (0.2 mL) containing as estimated 2.0×10^5 CFU of C. albicans. The day of inoculation was designated as study day 0. Beginning three days after injection, mice were treated intraperitoneally with vehicle alone or formulated test compound once daily for 5 consecutive days.
(§4) The mice were observed daily from study day 0 through study day 10 (3 days after the last dose). Mice found dead or euthanized in extremis were removed from the study without further processing. Surviving mice were euthanized by inhalation of CO2 on study day 10 and both kidneys from each mouse were removed. Each pair of removed kidneys was homogenized in 3 mL of ice-cold PBS containing 10% glycerol. A portion of each homogenate was used to determine log10 CFU per kidney using SDA plates (48 hours of incubation at 30° C.). Kidney log10 CFU data were analyzed using a t-test. The criterion for a statistically significant response was set at p<0.01.
(§5) For comparison, the results for AmB and AME are also provided. Efficacy was defined for individual animals as a greater than 2 log10 reduction in kidney CFU relative to the mean vehicle control value.

[4] = Two week range-finding toxicity study in mice; type: in vivo, CD-1 mice; settings: both sexes, CD-1, mouse, in vivo, iv
Protocol: as §1, §2
Various polyene macrolide amide derivatives of the invention were evaluated to characterize their potential toxicity when administered subchronically by intravenous injection.
CD-1® mice (Charles River Laboratories, Portage, Mich.) were acclimated to laboratory conditions for at least 5 days before the start of dosing. During the acclimation period, the general condition of the mice was evaluated, and those considered healthy were used. The mice were randomly assigned to treatment groups using a stratified body weight regimen. Each treatment group consisted of 3 male and 3 female mice. The mice were housed in a room with a controlled environment and provided rodent chow and water ad libitum.
On the first day of dosing, the mice were approximately 7 to 9 weeks old and weighed 22 to 30 g. Doses were administered by intravenous injection once daily on study days 1 to 5 and 8 to 12. Dosages were selected based upon data from efficacy and toxicology studies, and ranged from 1.25 to 30 mg/kg/day. Clinical observations were recorded 0.5 hr after dosing on days 1, 3, 5, 8, 10, 12 and 15, and on any day a change was observed. Body weights were recorded prior to dosing and on study days 8 and 12, and on study day 15 at the completion of the in-life phase of the study.
Animals that were found in a moribund/deteriorating clinical state were euthanized (animal designated killed in extremis) by inhalation of CO2. The day of death for any animal found dead or killed in extremis was recorded. Any animal that died prematurely was removed from the study without further processing.
One day after completion of dosing (study day 16), all surviving mice were euthanized by inhalation of CO2. Their kidneys were preserved for histopathologic examination. The maximum no-observed-adverse-effect level (NOAEL) was determined on the basis of clinical and histopathologic findings. The values for AmB and AME are provided for comparison.

C. albicans [5] = assay: 7 day kidney bioburden evaluation in neutropenic mice challenged with C. albicans; type: in vivo, Swiss-Webster mice; settings: Candida albicans, ip, 168 h, intraperitoneally once daily for 7 days, 50% of animals with 2 log10 reduction in kidney CFU
Protocol: as §1, §2
Various polyene macrolide amide derivatives of the invention were evaluated for their protective effect when administered intraperitoneally once daily for 7 days to neutropenic mice challenged with live C. albicans.
as §3, with “made neutropenic by intravenous administration of 5-fluorouracil (150 mg/kg) on study day −1. On study day 0, all mice received” for “administered”, “5.0×10^4” for “2.0×10^5”, “the day” for “three days”, “infection (on study day 1),” for “injection,”, “compound,” for “compound”, “7” for “5”
as §4, with “day 1” for “day 0”, “day 8 (1 day” for “day 10 (3 days”, “day 8” for “day 10”
as §5

Structure (SMILES)	MIC (C. albicans [1]) [µg/mL]	NLD acute mice [2] [mg/kg]	ED50 (C. albicans [3]) [mg/kg]	NOAEL at 2 week ([4]; NOAEL 2 week mice clinical) [mg/kg]	NOAEL at 2 week ([4]; NOAEL 2 week mice histological) [mg/kg]	ED50 (C. albicans [5]) [mg/kg]
CC1[C@H](C)OC(=O)C[C@H](O)C[C@H](O)CC[C@@H](O)[C@H](O)C[C@H](O)C[C@]2(O)C[C@H](O)C(C(=O)NCCN3CCCCC3)C(C[C@@H](OC3O[C@H](C)[C@@H](O)[C@H](NC[C@@]4(O)OC[C@@H](O)[C@@H](O)[C@@H]4O)[C@@H]3O)/C=C/C=C/C=C/C=C/C=C/C=C/C=C/[C@H](C)[C@H]1O)O2 (some centres unmarked) [Compound 107]	2 (≈ 1.67 µM)	>40	28	–	–	–
CC1[C@H](C)OC(=O)C[C@H](O)C[C@H](O)CC[C@@H](O)[C@H](O)C[C@H](O)C[C@]2(O)C[C@H](O)C(C(=O)N3CCN(CCO)CC3)C(C[C@@H](OC3O[C@H](C)[C@@H](O)[C@H](NC[C@@]4(O)OC[C@@H](O)[C@H](O)[C@@H]4O)[C@@H]3O)/C=C/C=C/C=C/C=C/C=C/C=C/C=C/[C@H](C)[C@H]1O)O2 (some centres unmarked) [Compound 135]	6.3 (≈ 5.26 µM)	10	1.6	1.25	> 5	–
CC1[C@H](C)OC(=O)C[C@H](O)C[C@H](O)CC[C@@H](O)[C@H](O)C[C@H](O)C[C@]2(O)C[C@H](O)C(C(=O)N3CCN(c4ccccc4)CC3)C(C[C@@H](OC3O[C@H](C)[C@@H](O)[C@H](NC[C@@]4(O)OC[C@@H](O)[C@H](O)[C@@H]4O)[C@@H]3O)/C=C/C=C/C=C/C=C/C=C/C=C/C=C/[C@H](C)[C@H]1O)O2 (some centres unmarked) [Compound 136]	0.4 (≈ 0.325 µM)	>15	40.2	–	–	–
CC1[C@H](C)OC(=O)C[C@H](O)C[C@H](O)CC[C@@H](O)[C@H](O)C[C@H](O)C[C@]2(O)C[C@H](O)C(C(=O)NCC(O)C(O)C(O)C(O)CO)C(C[C@@H](OC3O[C@H](C)[C@@H](O)[C@H](NC[C@@]4(O)OC[C@@H](O)[C@@H](O)[C@@H]4O)[C@@H]3O)/C=C/C=C/C=C/C=C/C=C/C=C/C=C/[C@H](C)[C@H]1O)O2 (some centres unmarked) [Compound 103]	1.1 (≈ 0.88 µM)	10	15	–	–	–
CC1[C@H](C)OC(=O)C[C@H](O)C[C@H](O)CC[C@@H](O)[C@H](O)C[C@H](O)C[C@]2(O)C[C@H](O)C(C(=O)NCC(O)C(O)C(O)C(O)CO)C(C[C@@H](OC3O[C@H](C)[C@@H](O)[C@H](NC[C@@]4(O)OC[C@@H](O)[C@H](O)[C@@H]4O)[C@@H]3O)/C=C/C=C/C=C/C=C/C=C/C=C/C=C/[C@H](C)[C@H]1O)O2 (some centres unmarked) [Compound 110]	1 (≈ 0.8 µM)	10	15	–	–	–
CC1[C@H](C)OC(=O)C[C@H](O)C[C@H](O)CC[C@@H](O)[C@H](O)C[C@H](O)C[C@]2(O)C[C@H](O)C(C(=O)N3CCN(C)CC3)C(C[C@@H](OC3O[C@H](C)[C@@H](O)[C@H](NC[C@@]4(O)OC[C@@H](O)[C@H](O)[C@@H]4O)[C@@H]3O)/C=C/C=C/C=C/C=C/C=C/C=C/C=C/[C@H](C)[C@H]1O)O2 (some centres unmarked) [Compound 113]	3.3 (≈ 2.82 µM)	7.5	2	> 5	1.25	–
CC1[C@H](C)OC(=O)C[C@H](O)C[C@H](O)CC[C@@H](O)[C@H](O)C[C@H](O)C[C@]2(O)C[C@H](O)C(C(=O)N3CCN(C)CC3)C(C[C@@H](OC3O[C@H](C)[C@@H](O)[C@H](NC[C@@]4(O)OC[C@@H](O)[C@@H](O)[C@@H]4O)[C@@H]3O)/C=C/C=C/C=C/C=C/C=C/C=C/C=C/[C@H](C)[C@H]1O)O2 (some centres unmarked) [Compound 106]	2 (≈ 1.71 µM)	<15	3	3	6	–
CC1[C@H](C)OC(=O)C[C@H](O)C[C@H](O)CC[C@@H](O)[C@H](O)C[C@H](O)C[C@]2(O)C[C@H](O)C(C(=O)NCCCN3CCOCC3)C(C[C@@H](OC3O[C@H](C)[C@@H](O)[C@H](NC[C@@]4(O)OC[C@@H](O)[C@@H](O)[C@@H]4O)[C@@H]3O)/C=C/C=C/C=C/C=C/C=C/C=C/C=C/[C@H](C)[C@H]1O)O2 (some centres unmarked) [Compound 104]	2 (≈ 1.65 µM)	20	9	10	< 10	3.1
CC1[C@H](C)OC(=O)C[C@H](O)C[C@H](O)CC[C@@H](O)[C@H](O)C[C@H](O)C[C@]2(O)C[C@H](O)C(C(=O)N3CCN(Cc4ccccc4)CC3)C(C[C@@H](OC3O[C@H](C)[C@@H](O)[C@H](NC[C@@]4(O)OC[C@@H](O)[C@H](O)[C@@H]4O)[C@@H]3O)/C=C/C=C/C=C/C=C/C=C/C=C/C=C/[C@H](C)[C@H]1O)O2 (some centres unmarked) [Compound 134]	1 (≈ 0.804 µM)	30	> 30	–	–	–
CCN1CCN(C(=O)C2C3C[C@@H](OC4O[C@H](C)[C@@H](O)[C@H](NC[C@@]5(O)OC[C@@H](O)[C@H](O)[C@@H]5O)[C@@H]4O)/C=C/C=C/C=C/C=C/C=C/C=C/C=C/[C@H](C)[C@@H](O)C(C)[C@H](C)OC(=O)C[C@H](O)C[C@H](O)CC[C@@H](O)[C@H](O)C[C@H](O)C[C@](O)(C[C@@H]2O)O3)CC1 (some centres unmarked) [Compound 133]	–	15	4.1	< 5	–	–
CC1[C@H](C)OC(=O)C[C@H](O)C[C@H](O)CC[C@@H](O)[C@H](O)C[C@H](O)C[C@]2(O)C[C@H](O)C(C(=O)NCCCN3CCOCC3)C(C[C@@H](OC3O[C@H](C)[C@@H](O)[C@H](NC[C@@]4(O)OC[C@@H](O)[C@H](O)[C@@H]4O)[C@@H]3O)/C=C/C=C/C=C/C=C/C=C/C=C/C=C/[C@H](C)[C@H]1O)O2 (some centres unmarked) [Compound 111]	2.7 (≈ 2.23 µM)	20	7	< 7	7	–
